{
  "source": "patent US20210378591A1",
  "about": "“PROCESS FOR VISUAL DETERMINATION OF TISSUE BIOLOGY” (UNIVERSITY COLLEGE DUBLIN, NATIONAL UNIVERSITY OF IRELAND, …, priority 2018, published 2021)",
  "key": {"[1]": {"conditions": "cited from earlier work"}, "[2]": {"conditions": "cited from earlier work", "remark": "listed apart in the source"}, "[3]": {"assay": "Dynamic visual analysis (DVA) of ICG NIR fluorescence intensity, rectal lesion versus healthy background tissue", "conditions": "for initial uptake of ICG relative to background tissue: 0.25 mg per kg intravenously, initial phase; for washout of contrast agent: at 25 to 30 minutes"}},
  "data": [
    {"smiles": "CC1(C)C(/C=C/C=C/C=C/C=C2\\N(CCCCS(=O)(=O)O)c3ccc4ccccc4c3C2(C)C)=[N+](CCCCS(=O)(=O)[O-])c2ccc3ccccc3c21", "note": "[ICG, indocyanine green]", "values": [
      {"measurement": "plasma protein binding", "setting": "[1]; following intravenous injection", "value": "rapidly bound to plasma proteins with minimal leakage into the interstitium"},
      {"measurement": "time of excretion by the liver in bile after injection", "setting": "[1]; intravenous injection", "value": "about 8 min"},
      {"measurement": "water solubility", "setting": "[2]", "value": "water-soluble but relatively hydrophobic"},
      {"measurement": "initial uptake of ICG relative to background tissue", "setting": "[3]; benign lesions", "value": "either synchronous with the background tissue or was ahead of the background tissue"},
      {"measurement": "washout of contrast agent", "setting": "[3]; benign lesions", "value": "most of the ICG tends to washout"},
      {"measurement": "initial uptake of ICG relative to background tissue", "setting": "[3]; cancerous tissue", "value": "a definite lag in the initial uptake"},
      {"measurement": "washout of contrast agent", "setting": "[3]; cancerous tissue", "value": "retains it for longer"}
    ]}
  ]
}
